Data published in publication PMC4704828, “Effect of Methamphetamine on Spectral Binding, Ligand Docking and Metabolism of Anti-HIV Drugs with CYP3A4” (PLoS ONE, 2016).
Where two headings read alike, the source gives them in different places.

Legend:
CYP3A4 [1] = molecular target: CYP3A4 (Homo sapiens, UniProt P08684); experiment: biochemical
Method: Histidine tagged CYP3A4 enzyme was expressed in E. coli and purified on Ni-NTA agarose column as described previously. Briefly, CYP3A4 cDNA was introduced into TOPP3 strain of E. coli by transformation and the cells were plated on LB ampicillin plate with tetracycline. The next day, a viable and isolated colony was grown in TB media for 48 h to induce CYP3A4. The cultures were harvested by centrifugation and CYP3A4 was extracted from the membrane using detergent followed by ultracentrifugation. The supernatant was loaded on a Ni-NTA agarose column for further purification. The purified enzyme was dialyzed and final preparation was stored at -80^οC until use.
The spectral change was recorded by using a UV/Vis double beam spectrophotometer (6800 UV/VIS JENWAY spectrophotometer) as described earlier. Briefly, 0.5 μM of purified CYP3A4 enzyme was incubated with 2 ml of 0.1 M HEPES buffer for 3 min and distributed equally between the sample and reference cuvettes. Depending upon the solvent used to solubilize methamphetamine or PIs, equal quantities of either methanol or water was added into the reference cuvette with final volume of the external solvent <1%. Increasing concentrations of methamphetamine was added to the sample cuvette while the same volume of solvent was added into the reference cuvette and the spectral change was recorded. For experiments involving PIs, different concentrations of PIs were added into the sample cuvette and the spectral change was recorded with a 2 min interval between each addition. […] Type I ligands displace the heme water ligand, thus shifting the iron spin equilibrium towards the high-spin form resulting in a spectrum, which is characterized by an increase in the absorbance at 390 nm (high spin) and a decrease at 420 nm (low spin). Type II ligands containing nitrogen heterocycles replace the water ligand to stabilize the low-spin form resulting in a spectrum that is characterized by an increase in the spectrum at ~430 nm and a decrease at ~400 nm. The effect of methamphetamine on the spectral binding of PIs was determined by incubating the CYP3A4 enzyme with 100 μM of methamphetamine and titrating with increasing concentrations of PIs.
The KD and δAmax were determined by fitting the curve (absorbance vs. concentration) with hyperbolic equation using non-regression analysis in sigma plot 11 (Systat Software, San Jose, CA). The p-values were determined using One way ANOVA with Dunnet’s post-hoc test and values <0.05 were considered statistically significant.

CYP3A4 [2] = details: HLMs; for decrease in formation of hydroxy ritonavir: substrate ritonavir 2 μM
Method: Briefly, the metabolite formations were assessed in incubation mixtures (0.5 mL) containing 100 mM phosphate buffer (pH 7.4), HLMs (0.1 mg/mL), and 5 mM Mgcl2 [13, 14]. The incubation mixtures were pre-incubated with six different concentrations of Meth ranging from 3 μM to 1000 μM for 10 min, followed by the addition of 5 μl stock solution of PI. The entire mixture was incubated in water bath at 37°C for 15 min. […] Later, the reactions were initiated upon the addition of 100 μl of 25 mM NADPH (final concentration of 5 mM) solution to each of the tube and incubated in water bath at 37°C for 60 min. […] Then, the tubes were vortexed and centrifuged at 500 g for 10 min and supernatant was transferred into vials for analysis by LC-MS/MS.
Standard curves for each analyte with IS were generated in blank HLMs incubation mixture as described above. The carry over test was performed by injecting an extra blank following the injection of upper limit of quantitation (ULOQ) of the standard curve with an IS. The LC-MS/MS methods were developed for each analyte along with its metabolite using 3200 QTRAP LC-MS/MS system, AB Sciex. […] (Fig 1, Table 1). A source temperature of 500°C, ion spray voltage of 5500 V, curtain gas of 20, GS 1 & 2 of 50, and dwell time of 200 msec were used for the determination of all analytes. The MRM method parameters such as declustering potential (DP), entrance potential (EP), collision energy (CE), and collision cell exit potential (CXP), were listed in the Table 1 along with the MRM transitions.
All the analytes were separated on reverse phase XTerra ® MS C18 column (4.6X50mm, i.d, 3.5 μm) using a Shimadzu LC-20AD HPLC system (CA, USA). A binary gradient elution method comprising of mobile phases (acetonitrile with 0.1% formic acid and water with 0.1% formic acid) with a flow rate of 0.5 mL/min was employed. […] Data acquisition and analyses were performed using the Analyst 1.4.2 software package (Applied Biosystems, Foster City, CA, USA).

CYP3A4 (Homo sapiens, UniProt P08684), sequence (P08684 whole entry): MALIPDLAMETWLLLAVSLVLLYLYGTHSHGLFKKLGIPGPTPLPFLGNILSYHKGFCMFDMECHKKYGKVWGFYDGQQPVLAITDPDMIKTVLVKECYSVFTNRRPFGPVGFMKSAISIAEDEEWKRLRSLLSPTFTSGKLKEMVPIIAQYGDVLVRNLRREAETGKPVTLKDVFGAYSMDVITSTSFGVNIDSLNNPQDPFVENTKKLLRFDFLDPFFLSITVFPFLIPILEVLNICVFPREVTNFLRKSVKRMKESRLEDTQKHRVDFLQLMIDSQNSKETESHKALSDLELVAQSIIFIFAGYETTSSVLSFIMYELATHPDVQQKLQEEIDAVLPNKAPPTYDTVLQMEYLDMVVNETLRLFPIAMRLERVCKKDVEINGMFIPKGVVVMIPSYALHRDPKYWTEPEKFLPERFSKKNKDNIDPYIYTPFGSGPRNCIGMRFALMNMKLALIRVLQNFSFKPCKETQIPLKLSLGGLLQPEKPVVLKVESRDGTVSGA

COC(=O)N[C@H](C(=O)N[C@@H](Cc1ccccc1)[C@@H](O)CN(Cc1ccc(-c2ccccn2)cc1)NC(=O)[C@@H](NC(=O)OC)C(C)(C)C)C(C)(C)C [Atazanavir]
δAmax (CYP3A4 [1]; human): 0.0045 ± 0.0002

Cc1c(O)cccc1C(=O)N[C@@H](CSc1ccccc1)[C@H](O)CN1C[C@H]2CCCC[C@H]2C[C@H]1C(=O)NC(C)(C)C [Nelfinavir]
δAmax (CYP3A4 [1]; human): 0.0068 ± 0.0001

CCC[C@@]1(CCc2ccccc2)CC(O)=C([C@H](CC)c2cccc(NS(=O)(=O)c3ccc(C(F)(F)F)cn3)c2)C(=O)O1 [Tipranavir]
δAmax (CYP3A4 [1]; human): 0.0050 ± 0.0005

CN[C@@H](C)Cc1ccccc1 [methamphetamine]
decrease in formation of hydroxy ritonavir (CYP3A4 [2]; 100 μM methamphetamine): 23.3 ± 3.8%
decrease in formation of hydroxy ritonavir (CYP3A4 [2]; 1000 μM methamphetamine): 46.2 ± 3.3%
effect on metabolism of lopinavir (lopinavir M1 formation) (CYP3A4 [2]; methamphetamine 3 μM to 1000 μM, substrate lopinavir 10 μM): did not affect
effect on metabolism of nelfinavir M8 (decrease in substrate concentration) (CYP3A4 [2]; methamphetamine 3 μM to 1000 μM, substrate nelfinavir M-8 1 μM): did not affect
Kd (CYP3A4 [1]; KD, methamphetamine alone titrated with CYP3A4, hyperbolic fit): 204 ± 18 µM
spectral transition (low to high spin) with CYP3A4 (CYP3A4 [1]; at saturating concentration of methamphetamine): approximately 20%
type of spectral change upon binding to CYP3A4 (CYP3A4 [1]; increase in absorbance at 390 nm, decrease at 418 nm): type I
δAmax (CYP3A4 [1]; methamphetamine alone titrated with CYP3A4, hyperbolic fit): 0.016±0.001
